Experiments:
MDA-MB-435 = assay: NCI anticancer screening, Melanoma MDA-MB-435; type: cell-based; conditions: Homo sapiens; MDA-MB-435, 10 μM; read-out: % Growth Inhibition (GI %)
How it was run: (§1)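 Processing was done per the standard DTP method, using the NCI-60 collection of human tumour cell lines.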

SF-539 = assay: NCI anticancer screening, CNS Cancer SF-539; type: cell-based; conditions: Homo sapiens; SF-539, 10 μM; read-out: % Growth Inhibition (GI %)
How it was run: as §1

MALME-3M = assay: NCI anticancer screening, Melanoma MALME-3M; type: cell-based; conditions: Homo sapiens, read-out: % Growth Inhibition (GI %)
How it was run: as §1

SNB-75 = assay: NCI anticancer screening, CNS Cancer SNB-75; type: cell-based; conditions: Homo sapiens; SNB-75, 10 μM; read-out: % Growth Inhibition (GI %)
How it was run: as §1

M14 = assay: NCI anticancer screening, Melanoma M14; type: cell-based; conditions: Homo sapiens; M14, 10 μM; read-out: % Growth Inhibition (GI %)
How it was run: as §1

MCF7 = assay: NCI anticancer screening, Breast Cancer MCF7; type: cell-based; conditions: Homo sapiens; MCF7, 10 μM; read-out: % Growth Inhibition (GI %)
How it was run: as §1

MOLT-4 = assay: NCI anticancer screening, Leukemia MOLT-4; type: cell-based; conditions: Homo sapiens; MOLT-4, 10 μM; read-out: % Growth Inhibition (GI %)
How it was run: as §1

RXF 393 = assay: NCI anticancer screening, Renal Cancer RXF 393; type: cell-based; conditions: Homo sapiens; RXF 393, 10 μM; read-out: % Growth Inhibition (GI %)
How it was run: as §1

LOX IMVI = assay: NCI anticancer screening, Melanoma LOX IMVI; type: cell-based; conditions: Homo sapiens, read-out: % Growth Inhibition (GI %)
How it was run: as §1

HL-60(TB) = assay: NCI anticancer screening, Leukemia HL-60(TB); type: cell-based; conditions: Homo sapiens, read-out: % Growth Inhibition (GI %)
How it was run: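 Values come from the NCI-60 human tumor cell screen as run by DTP under its standard organic-compound procedure.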

UO-31 = assay: NCI anticancer screening, Renal Cancer UO-31; type: cell-based; conditions: Homo sapiens; UO-31, 10 μM; read-out: % Growth Inhibition (GI %)
How it was run: as §1

K-562 = assay: NCI anticancer screening, Leukemia K-562; type: cell-based; conditions: Homo sapiens, K562; K-562, 10 μM; read-out: % Growth Inhibition (GI %)
How it was run: as §1

UACC-257 = assay: NCI anticancer screening, Melanoma UACC-257; type: cell-based; conditions: Homo sapiens; UACC-257, 10 μM; read-out: % Growth Inhibition (GI %)
How it was run: as §1

PC-3 cells = assay: MTT assay anticancer activity, PC-3; type: cell-based; conditions: Homo sapiens, PC-3, 5 µM, mean ± SEM, read-out: growth inhibition percentage of PC-3
Text: MTT method was done as described above.

NCI-H522 = assay: NCI anticancer screening, Non-Small Cell Lung Cancer NCI-H522; type: cell-based; conditions: Homo sapiens; NCI-H522, 10 μM; read-out: % Growth Inhibition (GI %)
How it was run: as §1

HCT-15 = assay: NCI anticancer screening, Colon Cancer HCT-15; type: cell-based; conditions: Homo sapiens; HCT-15, 10 μM; read-out: % Growth Inhibition (GI %)
How it was run: as §1

CAKI-1 = assay: NCI anticancer screening, Renal Cancer CAKI-1; type: cell-based; conditions: Homo sapiens; CAKI-1, 10 μM; read-out: % Growth Inhibition (GI %)
How it was run: as §1

[1] = MTT cytotoxicity to normal human lung fibroblast Wi-38 cell line; type: cell-based; conditions: Wi-38 normal lung fibroblast cells, mean ± SEM, read-out: percentage of Wi-38 viability
CCRF-CEM = assay: NCI anticancer screening, Leukemia CCRF-CEM; type: cell-based; conditions: Homo sapiens, read-out: % Growth Inhibition (GI %)
How it was run: as §1

NCI-H460 = assay: NCI anticancer screening, Non-Small Cell Lung Cancer NCI-H460; type: cell-based; conditions: Homo sapiens; NCI-H460, 10 μM; read-out: % Growth Inhibition (GI %)
How it was run: as §1

RPMI-8226 = assay: NCI anticancer screening, Leukemia RPMI-8226; type: cell-based; conditions: Homo sapiens; RPMI-8226, 10 μM; read-out: % Growth Inhibition (GI %)
How it was run: as §1

OVCAR-4 = assay: NCI anticancer screening, Ovarian Cancer OVCAR-4; type: cell-based; conditions: Homo sapiens; OVCAR-4, 10 μM; read-out: % Growth Inhibition (GI %)
How it was run: as §1

HCC-2998 = assay: NCI anticancer screening, Colon Cancer HCC-2998; type: cell-based; conditions: Homo sapiens; HCC-2998, 10 μM; read-out: % Growth Inhibition (GI %)
How it was run: as §1

KM12 = assay: NCI anticancer screening, Colon Cancer KM12; type: cell-based; conditions: Homo sapiens; KM12, 10 μM; read-out: % Growth Inhibition (GI %)
How it was run: as §1

SN12C = assay: NCI anticancer screening, Renal Cancer SN12C; type: cell-based; conditions: Homo sapiens, read-out: % Growth Inhibition (GI %)
How it was run: as §1

OVCAR-3 = assay: NCI anticancer screening, Ovarian Cancer OVCAR-3; type: cell-based; conditions: Homo sapiens; OVCAR-3, 10 μM; read-out: % Growth Inhibition (GI %)
How it was run: as §1

MDA-MB-468 = assay: NCI anticancer screening, Breast Cancer MDA-MB-468; type: cell-based; conditions: Homo sapiens, read-out: % Growth Inhibition (GI %)
How it was run: as §1

SK-MEL-5 = assay: NCI anticancer screening, Melanoma SK-MEL-5; type: cell-based; conditions: Homo sapiens; SK-MEL-5, 10 μM; read-out: % Growth Inhibition (GI %)
How it was run: as §1

SR = assay: NCI anticancer screening, Leukemia SR; type: cell-based; conditions: Homo sapiens, read-out: % Growth Inhibition (GI %)
How it was run: as §1

SW-620 = assay: NCI anticancer screening, Colon Cancer SW-620; type: cell-based; conditions: Homo sapiens; SW-620, 10 μM; read-out: % Growth Inhibition (GI %)
How it was run: as §1

A549/ATCC = assay: NCI anticancer screening, Non-Small Cell Lung Cancer A549/ATCC; type: cell-based; conditions: Homo sapiens, read-out: % Growth Inhibition (GI %)
How it was run: as §1

EKVX = assay: NCI anticancer screening, Non-Small Cell Lung Cancer EKVX; type: cell-based; conditions: Homo sapiens, read-out: % Growth Inhibition (GI %)
How it was run: as §1

HOP-62 = assay: NCI anticancer screening, Non-Small Cell Lung Cancer HOP-62; type: cell-based; conditions: Homo sapiens; HOP-62, 10 μM; read-out: % Growth Inhibition (GI %)
How it was run: as §1

## O=C(c1nc2ccccc2[nH]1)[C@H]1[C@H](c2cccc(F)c2)C2CSCN2[C@]12C(=O)Nc1ccccc12 (stereo partly drawn) [Compound 6m, (3S,6′R)-6'-(1H-Benzo [d]imidazole-2-carbonyl)-7'-(3-fluorophenyl)-3′,6′,7′,7a′-tetrahydro-1′H-spiro [indoline-3.5′-pyrrolo [1,2-c]thiazol]-2-one]
MDA-MB-435
  inhibition at 10 µM: 96.5%
SF-539
  inhibition at 10 µM: 86.7%
MALME-3M
  inhibition at 10 µM: 97.5%
SNB-75
  inhibition at 10 µM: 77.7%
M14
  inhibition at 10 µM: 97%
MCF7
  inhibition at 10 µM: 91.2%
MOLT-4
  inhibition at 10 µM: 85.5%
RXF 393
  inhibition at 10 µM: 85.2%
LOX IMVI
  inhibition at 10 µM: 87.5%
HL-60(TB)
  inhibition at 10 µM: 98.4%
UO-31
  inhibition at 10 µM: 65.3%
K-562
  inhibition at 10 µM: 84.4%
UACC-257
  inhibition at 10 µM: 99%
PC-3 cells
  inhibition at 5 µM: 60.1 ± 0.521%
NCI-H522
  inhibition at 10 µM: 77.8%
HCT-15
  inhibition at 10 µM: 95%
CAKI-1
  inhibition at 10 µM: 74.7%
[1]
  viability at 72 h, 5 µM: 43.7 ± 2.29%
CCRF-CEM
  inhibition at 10 µM: 112%
NCI-H460
  inhibition at 10 µM: 97.3%
RPMI-8226
  inhibition at 10 µM: 83.6%
OVCAR-4
  inhibition at 10 µM: 87.3%
HCC-2998
  inhibition at 10 µM: 91.8%
KM12
  inhibition at 10 µM: 98.1%
SN12C
  inhibition at 10 µM: 96.1%
OVCAR-3
  inhibition at 10 µM: 103%
MDA-MB-468
  inhibition at 10 µM: 99.3%
SK-MEL-5
  inhibition at 10 µM: 88.8%
SR
  inhibition at 10 µM: 82.8%
other
  melting point: 224 to 226 °C
SW-620
  inhibition at 10 µM: 89.1%
A549/ATCC
  inhibition at 10 µM: 84.6%
EKVX
  inhibition at 10 µM: 88.2%
HOP-62
  inhibition at 10 µM: 97.9%

## O=C(c1nc2ccccc2[nH]1)[C@H]1[C@H](c2ccco2)C2CSCN2[C@]12C(=O)Nc1ccccc12 (stereo partly drawn) [Compound 6n, (3S,6′R)-6'-(1H-Benzo [d]imidazole-2-carbonyl)-7'-(furan-2-yl)-3′,6′,7′,7a′-tetrahydro-1′H-spiro [indoline-3.5′-pyrrolo [1,2-c]thiazol]-2-one]
MDA-MB-435
  inhibition at 10 µM: 105%
SF-539
  inhibition at 10 µM: 96.4%
MALME-3M
  inhibition at 10 µM: 102%
SNB-75
  inhibition at 10 µM: 96%
M14
  inhibition at 10 µM: 101%
MCF7
  inhibition at 10 µM: 100%
MOLT-4
  inhibition at 10 µM: 96.8%
RXF 393
  inhibition at 10 µM: 104%
LOX IMVI
  inhibition at 10 µM: 91.7%
HL-60(TB)
  inhibition at 10 µM: 98.4%
UO-31
  inhibition at 10 µM: 61.7%
K-562
  inhibition at 10 µM: 89.8%
UACC-257
  inhibition at 10 µM: 116%
PC-3 cells
  inhibition at 5 µM: 52.5 ± 1.46%
NCI-H522
  inhibition at 10 µM: 99.7%
HCT-15
  inhibition at 10 µM: 105%
CAKI-1
  inhibition at 10 µM: 88.5%
[1]
  viability at 72 h, 5 µM: 46.2 ± 1.47%
CCRF-CEM
  inhibition at 10 µM: 110%
NCI-H460
  inhibition at 10 µM: 102%
RPMI-8226
  inhibition at 10 µM: 101%
OVCAR-4
  inhibition at 10 µM: 99.2%
HCC-2998
  inhibition at 10 µM: 104%
KM12
  inhibition at 10 µM: 102%
SN12C
  inhibition at 10 µM: 92.5%
OVCAR-3
  inhibition at 10 µM: 110%
MDA-MB-468
  inhibition at 10 µM: 102%
SK-MEL-5
  inhibition at 10 µM: 98.2%
SR
  inhibition at 10 µM: 86.8%
other
  melting point: 240 to 242 °C
SW-620
  inhibition at 10 µM: 95.6%
A549/ATCC
  inhibition at 10 µM: 102%
EKVX
  inhibition at 10 µM: 103%
HOP-62
  inhibition at 10 µM: 99.8%

Reference: article PMC11033320, “Activation of p53 signaling and regression of breast and prostate carcinoma cells by spirooxindole-benzimidazole small molecules” (Frontiers in Pharmacology, 2024)
